Measured values published in patent US11111238B2, “Coumarin derivatives, processes for their preparation and uses thereof for the treatment of cancer” (Lead Discovery Center GmbH, priority 2017, dated 2021).

Columns and labels:
[1] = system: mitochondrial transcription (7S RNA) in HeLa cells; assay: Quantitative real time-PCR assay of inhibition of mitochondrial transcription (cellular qPCR assay IMT); format: cell-based; conditions: Homo sapiens, 4 h compound incubation, qRT-PCR according to Example 5, activity class
Experimental: Quantitative real-time PCR (qRT-PCR), based on the TagMan™ (Thermo Fisher Scientific, Waltham Mass.) technology, was carried out essentially as described in (Heid et al., 1996). HeLa cells were plated one day before compound treatment in RPMI medium supplemented with 10% Fetal Calf Serum and 2 mM L-glutamine. Cells were incubated with dilution series of compounds or vehicle (DMSO) for 4 h, prior to harvest and extraction of the RNA using the RNeasy Mini Kit (Qiagen, Hilden D), according to the manufacturer's instructions. RNA concentrations were measured spectroscopically, using a NanoDrop-2000 (Thermo Fisher Scientific, Waltham Mass.) and normalized prior to cDNA synthesis, using a ‘High-Capacity cDNA Reverse Transcription Kit’ (Thermo Fisher Scientific, Waltham Mass.). qRT-PCR was carried out using the ‘TaqMan Fast Advance Master Mix’ (Thermo Fisher Scientific, Waltham Mass.) on a 7500 Fast Real-Time PCR machine (Applied Biosystems, Foster City Calif.)
For these measurements, three genes were used to compare the effect of the scrutinized compounds in relation to their concentration. The POLRMT-gene was used to detect potential influences on nuclear transcription. Mitochondrial transcription in vivo was monitored by measurements 7S RNA. The TBP (TATA-box binding protein) gene was employed as the control (housekeeping gene) during qRT-PCR. The short-lived mitochondrial 7S RNA, which is not post-transcriptionally stabilized, allowed us to monitor rapid changes in mitochondrial transcription activity following compound addition. Biological triplicates were analyzed using the comparative CT Method (ΔΔCt) method (Bubner and Baldwin, 2004) and reported as Rq % values (Rq=Relative quantification=2-ΔΔCt).

[2] = target: mitochondrial RNA-polymerase (POLRMT) (Mus musculus, UniProt Q8BKF1); assay: Homogeneous TR-FRET assay for mitochondrial transcription activity; format: biochemical; conditions: homogeneous TR-FRET assay according to Example 4; activity class
mitochondrial RNA-polymerase (POLRMT), sequence (Q8BKF1 42-1207): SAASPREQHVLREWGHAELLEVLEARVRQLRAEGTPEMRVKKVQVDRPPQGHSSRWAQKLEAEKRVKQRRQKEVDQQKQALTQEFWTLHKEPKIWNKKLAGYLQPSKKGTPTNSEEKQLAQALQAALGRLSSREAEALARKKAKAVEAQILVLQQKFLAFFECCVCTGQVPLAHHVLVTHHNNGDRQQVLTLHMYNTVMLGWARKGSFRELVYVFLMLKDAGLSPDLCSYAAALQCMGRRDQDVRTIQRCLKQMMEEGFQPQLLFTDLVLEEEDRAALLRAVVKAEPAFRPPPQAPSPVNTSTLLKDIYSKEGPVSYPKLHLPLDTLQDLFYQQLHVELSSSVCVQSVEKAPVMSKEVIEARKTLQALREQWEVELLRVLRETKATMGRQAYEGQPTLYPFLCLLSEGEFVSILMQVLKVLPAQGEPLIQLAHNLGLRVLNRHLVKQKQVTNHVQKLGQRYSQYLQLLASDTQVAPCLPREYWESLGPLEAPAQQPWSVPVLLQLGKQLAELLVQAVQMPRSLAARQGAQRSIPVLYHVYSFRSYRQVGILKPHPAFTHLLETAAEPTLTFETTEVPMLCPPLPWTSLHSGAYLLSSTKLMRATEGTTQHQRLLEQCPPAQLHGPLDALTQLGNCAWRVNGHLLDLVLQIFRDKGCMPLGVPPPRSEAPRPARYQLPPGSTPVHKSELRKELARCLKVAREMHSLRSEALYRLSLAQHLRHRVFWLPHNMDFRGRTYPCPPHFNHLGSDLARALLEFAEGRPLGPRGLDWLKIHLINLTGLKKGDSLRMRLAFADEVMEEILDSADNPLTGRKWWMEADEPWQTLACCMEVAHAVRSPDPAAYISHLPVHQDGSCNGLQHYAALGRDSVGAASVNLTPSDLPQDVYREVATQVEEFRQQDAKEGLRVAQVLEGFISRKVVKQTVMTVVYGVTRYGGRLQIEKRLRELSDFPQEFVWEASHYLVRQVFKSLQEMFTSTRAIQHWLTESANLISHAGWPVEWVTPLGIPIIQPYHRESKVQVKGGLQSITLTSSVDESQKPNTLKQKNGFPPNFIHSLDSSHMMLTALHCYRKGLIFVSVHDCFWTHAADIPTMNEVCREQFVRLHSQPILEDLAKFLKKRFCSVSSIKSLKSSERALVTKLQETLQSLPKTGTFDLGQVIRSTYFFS
In short: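 Mouse POLRMT, TFAM and TFB2M with linearized pUC-LSP template in 10 mM Tris-HCl pH 7.5, 10 mM MgCl2, 40 mM NaCl; compounds at 10 μM or serial dilution, 10 min RT preincubation. Started with 500 μM each […], 2 h RT; 407 bp RNA product detected by hybridized Eu-cryptate/ATTO647N probe TR-FRET (ex 340, em 665 nm).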

Structure (SMILES)	IC50 [1]	IC50 [2]
Cc1ccccc1-c1cc(=O)oc2cc(OC(C)C(=O)N3CCCCC3)ccc12 (centres unmarked) [Compound 1, 7-[1-methyl-2-oxo-2-(1-piperidyl)ethoxy]-4-(o-tolyl)chromen-2-one]	< 0.01 µM	< 0.02 µM
CCOC(=O)[C@H]1CCCN(C(=O)[C@@H](C)Oc2ccc3c(-c4ccc(F)cc4Cl)cc(=O)oc3c2)C1 [Compound 111, ethyl (3S)-1-[(2R)-2-[4-(2-chloro-4-fluoro-phenyl)-2-oxo-chromen-7-yl]oxypropanoyl] piperidine-3-carboxylate]	0.05 to 0.5 µM	0.02 to 0.1 µM
C=CC(=O)N[C@H]1CCCN(C(=O)[C@@H](C)Oc2ccc3c(-c4ccc(F)cc4Cl)cc(=O)oc3c2)C1 [Compound 165, N-[(3S)-1-[(2R)-2-[4-(2-chloro-4-fluoro-phenyl)-2-oxo-chromen-7-yl]oxypropanoyl]-3-piperidyl]prop-2-enamide]	< 0.01 µM	< 0.02 µM
Cc1ccccc1-c1cc(=O)oc2cc(OC(C)C(=O)N3CCCC(c4nn[nH]n4)C3)ccc12 (centres unmarked) [Compound 42, 7-((1-(3-(2H-tetrazol-5-yl)piperidin-1-yl)-1-oxopropan-2-yl)oxy)-4-(o-tolyl)-2H-chromen-2-one]	0.01 to 0.05 µM	< 0.02 µM
C=CC(=O)N1CCN(C(=O)[C@@H](C)Oc2ccc3c(-c4ccc(F)cc4Cl)cc(=O)oc3c2)CC1 [Compound 164, 4-(2-chloro-4-fluoro-phenyl)-7-[(1R)-1-methyl-2-oxo-2-(4-prop-2-enoylpiperazin-1-yl)ethoxy]chromen-2-one]	< 0.01 µM	< 0.02 µM
CC(Oc1ccc2c(-c3ccccc3Cl)cc(=O)oc2c1)C(=O)N1CCCC(S(C)(=N)=O)C1 (centres unmarked) [Compound 79, 4-(2-chlorophenyl)-7-[1-methyl-2-[3-(methylsulfonimidoyl)-1-piperidyl]-2-oxo-ethoxy]chromen-2-one]	< 0.01 µM	0.02 to 0.1 µM
Cc1ccccc1-c1cc(=O)oc2cc(OC(C)C(=O)N3CCCC(C(=O)O)C3)ccc12 (centres unmarked) [Compound 8, 1-[2-[4-(o-tolyl)-2-oxo-chromen-7-yl]oxypropanoyl]piperidine-3-carboxylic acid]	< 0.01 µM	< 0.02 µM
COC(=O)C[C@@H]1CCCN(C(=O)[C@@H](C)Oc2ccc3c(-c4ccc(F)cc4Cl)cc(=O)oc3c2)C1 [Compound 105, methyl 2-[(3S)-1-[(2R)-2-[4-(2-chloro-4-fluoro-phenyl)-2-oxo-chromen-7-yl]oxypropanoyl]-3-piperidyl]acetate]	0.01 to 0.05 µM	0.02 to 0.1 µM
COC(=O)C[C@H]1CCCN(C(=O)[C@@H](C)Oc2ccc3c(-c4ccc(F)cc4Cl)cc(=O)oc3c2)C1 [Compound 104, methyl 2-[(3R)-1-[(2R)-2-[4-(2-chloro-4-fluoro-phenyl)-2-oxo-chromen-7-yl]oxypropanoyl]-3-piperidyl]acetate]	0.01 to 0.05 µM	< 0.02 µM
C[C@@H](Oc1ccc2c(-c3ccc(F)cc3Cl)cc(=O)oc2c1)C(=O)Nc1ccc(C(=O)O)cc1 [Compound 141, 4-[[(2R)-2-[4-(2-chloro-4-fluoro-phenyl)-2-oxo-chromen-7-yl]oxypropanoyl]amino]benzoic acid]	0.05 to 0.5 µM	< 0.02 µM
C[C@@H](Oc1ccc2c(-c3ccc(F)cc3Cl)cc(=O)oc2c1)C(=O)N1CCC[C@H](CC(=O)O)C1 [Compound 106, 2-[(3R)-1-[(2R)-2-[4-(2-chloro-4-fluoro-phenyl)-2-oxo-chromen-7-yl]oxypropanoyl]-3-piperidyl]acetic acid]	< 0.01 µM	< 0.02 µM
C[C@@H](Oc1ccc2c(-c3ccc(F)cc3Cl)cc(=O)oc2c1)C(=O)N1CCC[C@H](C(=O)OC(C)(C)C)C1 [Compound 118, tert-butyl (3S)-1-[(2R)-2-[4-(2-chloro-4-fluoro-phenyl)-2-oxo-chromen-7-yl]oxypropanoyl] piperidine-3-carboxylate]	0.05 to 0.5 µM	0.02 to 0.1 µM
CC(Oc1ccc2c(-c3ccccc3Cl)cc(=O)oc2c1)C(=O)N(C)C (centres unmarked) [Compound 93, 2-[4-(2-chlorophenyl)-2-oxo-chromen-7-yl]oxy-N,N-dimethyl-propanamide]	< 0.01 µM	0.02 to 0.1 µM
CC(C)OC(=O)OCOC(=O)[C@H]1CCCN(C(=O)[C@@H](C)Oc2ccc3c(-c4ccc(F)cc4Cl)cc(=O)oc3c2)C1 [Compound 121, (S)-((isopropoxycarbonyl)oxy)methyl 1-((R)-2-((4-(2-chloro-4-fluorophenyl)-2-oxo-2H-chromen-7-yl)oxy)propanoyl)piperidine-3-carboxylate]	< 0.01 µM	0.02 to 0.1 µM
C[C@@H](Oc1ccc2c(-c3ccc(F)cc3Cl)cc(=O)oc2c1)C(=O)N1CCC[C@@H](CC(=O)O)C1 [Compound 107, 2-[(3S)-1-[(2R)-2-[4-(2-chloro-4-fluoro-phenyl)-2-oxo-chromen-7-yl]oxypropanoyl]-3-piperidyl]acetic acid]	< 0.01 µM	< 0.02 µM
Cc1ccsc1-c1cc(=O)oc2cc(O[C@H](C)C(=O)NC(C)C)ccc12 [Compound 178, (2R)-N-isopropyl-2-[4-(3-methyl-2-thienyl)-2-oxo-chromen-7-yl]oxy-propanamide]	0.01 to 0.05 µM	0.1 to 1 µM
C[C@@H](Oc1ccc2c(-c3ccc(F)cc3Cl)cc(=O)oc2c1)C(=O)N1CCC[C@H](CC(=O)OC(C)(C)C)C1 [Compound 124, tert-butyl 2-[(3R)-1-[(2R)-2-[4-(2-chloro-4-fluoro-phenyl)-2-oxo-chromen-7-yl]oxypropanoyl]-3-piperidyl]acetate]	< 0.01 µM	0.02 to 0.1 µM
C[C@@H](Oc1ccc2c(-c3ccc(F)cc3Cl)cc(=O)oc2c1)C(=O)Nc1cccc(C(=O)O)c1 [Compound 139, 3-[[(2R)-2-[4-(2-chloro-4-fluoro-phenyl)-2-oxo-chromen-7-yl]oxypropanoyl]amino]benzoic acid]	0.05 to 0.5 µM	< 0.02 µM
CCOC(=O)C(C)Oc1ccc2c(-c3ccccc3Br)cc(=O)oc2c1 (centres unmarked) [Compound 81, ethyl 2-[4-(2-bromophenyl)-2-oxo-chromen-7-yl]oxypropanoate]	0.01 to 0.05 µM	0.02 to 0.1 µM
Cc1ccccc1-c1cc(=O)oc2cc(OC(C)C(=O)N3CCCC(S(N)(=O)=O)C3)ccc12 (centres unmarked) [Compound 12, 1-[2-[4-(o-tolyl)-2-oxo-chromen-7-yl]oxypropanoyl]piperidine-3-sulfonamide]	< 0.01 µM	< 0.02 µM
CNC(=O)C[C@H]1CCCN(C(=O)[C@@H](C)Oc2ccc3c(-c4ccc(F)cc4Cl)cc(=O)oc3c2)C1 [Compound 128, 2-[(3R)-1-[(2R)-2-[4-(2-chloro-4-fluoro-phenyl)-2-oxo-chromen-7-yl]oxypropanoyl]-3-piperidyl]-N-methyl-acetamide]	< 0.01 µM	< 0.02 µM
CC(Oc1ccc2c(-c3ccccc3Br)cc(=O)oc2c1)C(=O)N(C)C (centres unmarked) [Compound 89, 2-[4-(2-bromophenyl)-2-oxo-chromen-7-yl]oxy-N,N-dimethyl-propanamide]	< 0.01 µM	0.02 to 0.1 µM
CCOC(=O)CC1CCCN(C(=O)C(C)Oc2ccc3c(-c4ccccc4Cl)cc(=O)oc3c2)C1 (centres unmarked) [Compound 86, ethyl 2-[1-[2-[4-(2-chlorophenyl)-2-oxo-chromen-7-yl]oxypropanoyl]-3-piperidyl]acetate]	0.01 to 0.05 µM	0.02 to 0.1 µM
CCCCCCCOC(=O)[C@H]1CCCN(C(=O)[C@@H](C)Oc2ccc3c(-c4ccc(F)cc4Cl)cc(=O)oc3c2)C1 [Compound 120, heptyl (3S)-1-[(2R)-2-[4-(2-chloro-4-fluoro-phenyl)-2-oxo-chromen-7-yl]oxypropanoyl] piperidine-3-carboxylate]	< 0.01 µM	0.1 to 1 µM
CC(C)NC(=O)[C@@H](C)Oc1ccc2c(-c3ccccc3Cl)cc(=O)oc2c1 [Compound 56, (2R)-2-[4-(2-chlorophenyl)-2-oxo-chromen-7-yl]oxy-N-isopropyl-propanamide]	< 0.01 µM	0.02 to 0.1 µM
CC(C)OC(=O)[C@H]1CCCN(C(=O)[C@@H](C)Oc2ccc3c(-c4ccc(F)cc4Cl)cc(=O)oc3c2)C1 [Compound 117, isopropyl (3S)-1-[(2R)-2-[4-(2-chloro-4-fluoro-phenyl)-2-oxo-chromen-7-yl]oxypropanoyl] piperidine-3-carboxylate]	0.05 to 0.5 µM	0.02 to 0.1 µM
CCNC(=O)C(C)Oc1ccc2c(-c3ccccc3Cl)cc(=O)oc2c1 (centres unmarked) [Compound 98, 2-[4-(2-chlorophenyl)-2-oxo-chromen-7-yl]oxy-N-ethyl-propanamide]	< 0.01 µM	0.1 to 1 µM
C[C@@H](Oc1ccc2c(-c3ccc(F)cc3Cl)cc(=O)oc2c1)C(=O)N1CCC[C@H](CC(=O)OCCN2CCOCC2)C1 [Compound 125]	< 0.01 µM	< 0.02 µM
